PubChem BioAssay AID1963864 (Molecular Pharmacology Branch, DTP, NCI, 2024)
“And” between values parts separate entries of the source, which are not always exact repeats. Identical values can stand only once.

Tested on: KRAS PDC multicell spheroid viability
Experiment: Anticancer human tumor 521955-158-R6-J3-PDC patient-derived pancreatic carcinoma cell line growth inhibition [KRAS2]
Conditions: for viability, T/C: stronger effect = lower value
Source text: Multicellular complex tumor spheroid response to RAS pathway inhibitors in combination with a targeted agents in patient-derived cell lines with oncogenic KRAS variants from multiple cancer types
A high-throughput screen of multi-cell type tumor spheroids was designed to identify active combinations of targeted small molecules and KRAS pathway inhibitors. Complex spheroids include a stromal component modeled by human endothelial cells (HUVEC) and fibroblasts modeled by human mesenchymal stem cells (MSCs). The concentration ranges selected for each drug and investigational agent were based upon clinically achievable concentrations if the clinical Cmax of the agent was known.
Compounds. The drugs and investigational agents: BI-3406 (NSC825286), BAY-293 (NSC824723), batoprotafib (TNO155; NSC825523), sotorasib (AMG 510; NSC818433), MRTX1257 (NSC819558), elimusertib (BAY 1895344; NSC800525), molibresib (GSK525762; NSC774829), temuterkib (LY3214996; NSC803410), venetoclax (NSC766270), alisertib (NSC759677), olaparib (NSC753686), talazoparib (NSC767125), erdafitinib (NSC781556), ipatasertib (NSC767898), cabozantinib (NSC761068), nintedanib (NSC756659), abemaciclib (NSC768073), docetaxel (NSC628503), trametinib (NSC758246), and sapanisertib (NSC764658) were obtained from the National Cancer Institute (NCI) Developmental Therapeutics Program Chemical Repository. The FDA-approved anticancer drug set is available from the Developmental Therapeutics Program. […] The stock solutions were prepared in dimethyl sulfoxide (DMSO, Sigma-Aldrich, St. Louis, MO, cat. D2650) at 800-fold the tested concentration and stored at -70 degrees C prior to their use. All drugs and investigational agents were tested over a range starting from a high concentration at or near the clinical Cmax and decreasing in half-log increments. If the clinical Cmax for an agent had not been determined, the highest concentration tested was 10 microM.
Cell Culture. All cells were maintained in an incubator at 37 degrees C and 5% CO2 with 95% humidity. The PDC lines were cultured according to standard operating procedures established by the NCI PDMR (https://pdmr.cancer.gov/sops/default.htm). Briefly, all PDCs were thawed and cultured in Matrigel-coated flasks prepared with a working solution of 1X Ham's F-12 nutrient mix, without supplementation (Invitrogen, Waltham, MA, cat. 11765054), 100 U/mL penicillin-streptomycin (Invitrogen, cat. 15140122), and 2.5% Matrigel (Corning Inc., Corning, NY, cat. 354248) for the first three passages. All PDCs were cultured in complete DMEM/F-12 media containing advanced DMEM/F-12 (Invitrogen, cat. 12634028), 4.9% defined fetal bovine serum, heat inactivated (HyClone Laboratories Inc., Logan, UT, cat. SH30070.03HI), 389 ng/mL hydrocortisone (Sigma-Aldrich, cat. H4001), 9.7 ng/mL human EGF recombinant protein (Invitrogen, cat. PHG0313), 23.4 microg/mL adenine (Sigma-Aldrich, cat. A2786), 97.3 U/mL penicillin-streptomycin (Invitrogen, cat. 15140122), 1.9 mM L-glutamine (Invitrogen, cat. 25030081), and 9.7 microM Y-27632 dihydrochloride (Tocris Bioscience, Bristol, United Kingdom, cat. 1254). The PDCs were cultured in complete DMEM/F12 media without 9.7 microM Y-27632 dihydrochloride for at least two passages prior to the screen. The established cell line HOP-62 was cultured in RPMI 1640 medium, HEPES (Invitrogen, cat. 22400105) with 10% defined fetal bovine serum (HyClone Laboratories Inc., cat. SH30070.03) and 2 mM L-glutamine (Invitrogen, cat. 25030081). The pooled donor HUVEC were cultured in endothelial cell growth medium 2 (PromoCell, Heidelberg, Germany, cat. C-22011) and the hMSC were cultured in mesenchymal stem cell growth medium 2 (PromoCell, cat. C-28009). For all experiments, HUVEC and hMSC were used at passages </=5, while the malignant cell lines were used at passages </=15. […]

[1] = curve of first compound, second compound 0.1 µM
[2] = curve of first compound, second compound 0.316 µM
[3] = curve of first compound, second compound 1 µM
[4] = curve of first compound, second compound 3.16 µM
[5] = curve of first compound, second compound 10 µM
[6] = second compound 0.1 µM, first compound 0.000316 µM
[7] = second compound 0.1 µM, first compound 0.001 µM
[8] = second compound 0.1 µM, first compound 0.00316 µM
[9] = second compound 0.1 µM, first compound 0.01 µM
[10] = second compound 0.1 µM, first compound 0.0316 µM
[11] = second compound 0.1 µM, first compound 0.1 µM
[12] = second compound 0.316 µM, first compound 0.000316 µM
[13] = second compound 0.316 µM, first compound 0.001 µM
[14] = second compound 0.316 µM, first compound 0.00316 µM
[15] = second compound 0.316 µM, first compound 0.01 µM
[16] = second compound 0.316 µM, first compound 0.0316 µM
[17] = second compound 0.316 µM, first compound 0.1 µM
[18] = second compound 1 µM, first compound 0.000316 µM
[19] = second compound 1 µM, first compound 0.001 µM
[20] = second compound 1 µM, first compound 0.00316 µM
[21] = second compound 1 µM, first compound 0.01 µM
[22] = second compound 1 µM, first compound 0.0316 µM
[23] = second compound 1 µM, first compound 0.1 µM
[24] = second compound 3.16 µM, first compound 0.000316 µM
[25] = second compound 3.16 µM, first compound 0.001 µM
[26] = second compound 3.16 µM, first compound 0.00316 µM
[27] = second compound 3.16 µM, first compound 0.01 µM
[28] = second compound 3.16 µM, first compound 0.0316 µM
[29] = second compound 3.16 µM, first compound 0.1 µM
[30] = second compound 10 µM, first compound 0.000316 µM
[31] = second compound 10 µM, first compound 0.001 µM
[32] = second compound 10 µM, first compound 0.00316 µM
[33] = second compound 10 µM, first compound 0.01 µM
[34] = second compound 10 µM, first compound 0.0316 µM
[35] = second compound 10 µM, first compound 0.1 µM
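Note: drug exposure lasted seven days.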
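Throughout, for viability, T/C: 100% = DMSO vehicle wells and lower means fewer viable cells.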

Work on `CC(C)n1nc(-c2ccc3oc(N)nc3c2)c2c(N)ncnc21` + CC1OCC2(CCN(c3cnc(Sc4ccnc(N)c4Cl)c(N)n3)CC2)C1N yielded an IC50 [1] of over 100 nM, an IC50 [2] of 56.3 nM and an IC50 [3] of 55.7 nM. For the same compound, the IC50 [4] was 33.5 nM, the IC50 [5] was 23.5 nM and the viability, T/C [6] was 89%. For the same compound, the viability, T/C [7] was 85.8%, the viability, T/C [8] was 74% and the viability, T/C [9] was 65.3%. It also gave a viability, T/C [10] of 57.4%, a viability, T/C [11] of 50% and a viability, T/C [12] of 92.3%. The viability, T/C [13] was 84.2%, the viability, T/C [14] was 71.7% and the viability, T/C [15] was 65.6%. It also gave a viability, T/C [16] of 56.2%, a viability, T/C [17] of 44.3% and a viability, T/C [18] of 88.3%. The viability, T/C [19] was 86.5%, the viability, T/C [20] was 74.2% and the viability, T/C [21] was 66.8%. For the same compound, the viability, T/C [22] was 56%, the viability, T/C [23] was 44.1% and the viability, T/C [24] was 112%. It also gave a viability, T/C [25] of 113%, a viability, T/C [26] of 88.8% and a viability, T/C [27] of 70.7%. It also gave a viability, T/C [28] of 51.3%, a viability, T/C [29] of 40.2% and a viability, T/C [30] of 99.1%. It also gave a viability, T/C [31] of 101%, a viability, T/C [32] of 89.7% and a viability, T/C [33] of 63.1%. It also gave a viability, T/C [34] of 47.3% and a viability, T/C [35] of 38.3%.
With `CC(C)n1nc(-c2ccc3oc(N)nc3c2)c2c(N)ncnc21` the viability, T/C (compound 0.000316 µM) was 91.3% [middle of 5 runs], the viability, T/C (compound 0.001 µM) was 91.3% [middle of 5 runs] and the viability, T/C (compound 0.00316 µM) was 82.9% [middle of 5 runs]. For the same compound, the viability, T/C (compound 0.01 µM) was 74.3% [middle of 5 runs], the viability, T/C (compound 0.0316 µM) was 67.2% [middle of 5 runs] and the viability, T/C (compound 0.1 µM) was 50.7% [middle of 5 runs]. The IC50 (curve of compound) was > 100 nM and 95.7 nM.
`COc1cc2nccc(Oc3ccc(NC(=O)C4(C(=O)Nc5ccc(F)cc5)CC4)cc3)c2cc1OC` + C=CC(=O)N1CCN(c2nc(=O)n(-c3c(C)ccnc3C(C)C)c3nc(-c4c(O)cccc4F)c(F)cc23)C(C)C1 was tested, and the IC50 [1] was over 10000 nM, the IC50 [2] was over 10000 nM and the IC50 [3] was over 10000 nM. It also gave an IC50 [4] of over 10000 nM, an IC50 [5] of over 10000 nM and a viability, T/C [10] of 91.9%. The viability, T/C [11] was 96.8%, the viability, T/C (second compound 0.1 µM, first compound 0.316 µM) was 96.7% and the viability, T/C (second compound 0.1 µM, first compound 1 µM) was 98.1%. The viability, T/C (second compound 0.1 µM, first compound 3.16 µM) was 119%, the viability, T/C (second compound 0.1 µM, first compound 10 µM) was 111% and the viability, T/C [16] was 95.3%. The viability, T/C [17] was 91.3%, the viability, T/C (second compound 0.316 µM, first compound 0.316 µM) was 102% and the viability, T/C (second compound 0.316 µM, first compound 1 µM) was 99.2%. For the same compound, the viability, T/C (second compound 0.316 µM, first compound 3.16 µM) was 115%, the viability, T/C (second compound 0.316 µM, first compound 10 µM) was 122% and the viability, T/C [22] was 89.8%. For the same compound, the viability, T/C [23] was 106%, the viability, T/C (second compound 1 µM, first compound 0.316 µM) was 96.9% and the viability, T/C (second compound 1 µM, first compound 1 µM) was 104%. It also gave a viability, T/C (second compound 1 µM, first compound 3.16 µM) of 119%, a viability, T/C (second compound 1 µM, first compound 10 µM) of 120% and a viability, T/C [28] of 85.5%. The viability, T/C [29] was 82.9%, the viability, T/C (second compound 3.16 µM, first compound 0.316 µM) was 87.4% and the viability, T/C (second compound 3.16 µM, first compound 1 µM) was 85%. For the same compound, the viability, T/C (second compound 3.16 µM, first compound 3.16 µM) was 99.1%, the viability, T/C (second compound 3.16 µM, first compound 10 µM) was 90.8% and the viability, T/C [34] was 64.9%. It also gave a viability, T/C [35] of 66.2%, a viability, T/C (second compound 10 µM, first compound 0.316 µM) of 52.2% and a viability, T/C (second compound 10 µM, first compound 1 µM) of 64.8%. The viability, T/C (second compound 10 µM, first compound 3.16 µM) was 53% and the viability, T/C (second compound 10 µM, first compound 10 µM) was 69.9%.
With `Cn1ncnc1[C@H]1c2n[nH]c(=O)c3cc(F)cc(c23)N[C@@H]1c1ccc(F)cc1` + CC1OCC2(CCN(c3cnc(Sc4ccnc(N)c4Cl)c(N)n3)CC2)C1N the IC50 [1] was over 100 nM, the IC50 [2] was over 100 nM and the IC50 [3] was over 100 nM. The IC50 [4] was over 100 nM, the IC50 [5] was over 100 nM and the viability, T/C [6] was 86.7%. The viability, T/C [7] was 91%, the viability, T/C [8] was 78.5% and the viability, T/C [9] was 83.2%. It also gave a viability, T/C [10] of 79.5%, a viability, T/C [11] of 77.2% and a viability, T/C [12] of 93.3%. It also gave a viability, T/C [13] of 76.7%, a viability, T/C [14] of 81.5% and a viability, T/C [15] of 80.2%. For the same compound, the viability, T/C [16] was 79.2%, the viability, T/C [17] was 78.2% and the viability, T/C [18] was 83.6%. For the same compound, the viability, T/C [19] was 82%, the viability, T/C [20] was 79% and the viability, T/C [21] was 78%. It also gave a viability, T/C [22] of 82.9%, a viability, T/C [23] of 86.4% and a viability, T/C [24] of 99.8%. It also gave a viability, T/C [25] of 95.6%, a viability, T/C [26] of 96.3% and a viability, T/C [27] of 106%. It also gave a viability, T/C [28] of 96.2%, a viability, T/C [29] of 82% and a viability, T/C [30] of 105%. The viability, T/C [31] was 103%, the viability, T/C [32] was 95% and the viability, T/C [33] was 103%. The viability, T/C [34] was 100% and the viability, T/C [35] was 97.9%.
For `COc1cc(OC)cc(N(CCNC(C)C)c2ccc3ncc(-c4cnn(C)c4)nc3c2)c1`, the viability, T/C (compound 0.0316 µM) was 96% [middle of 4 runs], the viability, T/C (compound 0.1 µM) was 96.3% [middle of 4 runs] and the viability, T/C (compound 0.316 µM) was 96.1% [middle of 4 runs]. For the same compound, the viability, T/C (compound 1 µM) was 94% [middle of 4 runs], the viability, T/C (compound 3.16 µM) was 110% [middle of 4 runs] and the viability, T/C (compound 10 µM) was 7.96% [middle of 4 runs]. For the same compound, the IC50 (curve of compound) was 5.96 µM [middle of 4 runs].
